Results: US11046682B2, “Fused heterocyclic derivatives, their preparation methods thereof and medical uses thereof” (Beijing Innocare Pharma Tech Co., Ltd., priority 2016, dated 2021)

Columns and labels:
plasma IDO1 = plasma IDO1 (Mus musculus (Mouse), UniProt P28776); conditions: nude mice, single dose; at the level of IDO-deficient mice; cited from earlier work
CT26 tumors = conditions: repeated doses; cited from earlier work
[1] = target: full-length human recombinant IDO1 protein (Homo sapiens (Human), UniProt P14902); experiment: IDO enzyme activity inhibition testing (Ehrlich method); assay type: biochemical; conditions: OD490, 10 concentration points
full-length human recombinant IDO1 protein, sequence (P14902 whole entry): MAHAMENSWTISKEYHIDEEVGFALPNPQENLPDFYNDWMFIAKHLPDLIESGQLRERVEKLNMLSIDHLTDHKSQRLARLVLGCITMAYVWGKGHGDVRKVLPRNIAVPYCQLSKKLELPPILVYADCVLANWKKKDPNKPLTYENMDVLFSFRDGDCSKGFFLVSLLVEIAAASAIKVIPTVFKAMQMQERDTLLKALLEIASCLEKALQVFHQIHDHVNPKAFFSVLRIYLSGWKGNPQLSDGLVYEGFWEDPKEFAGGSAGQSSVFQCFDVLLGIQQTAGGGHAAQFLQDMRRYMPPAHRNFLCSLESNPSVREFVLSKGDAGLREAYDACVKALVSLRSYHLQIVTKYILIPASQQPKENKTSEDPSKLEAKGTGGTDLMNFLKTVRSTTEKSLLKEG
Method: IDO Enzyme Activity Inhibition Testing
The effects of the compounds of the invention on the activity of indoleamine 2,3-dioxygenase (IDO) were evaluated by the Ehrlich method.
The experimental principle is summarized as follows: IDO1 catalyzes oxidation of tryptophan to form N-formyl kynurenine, N-formyl kynurenine is subsequently hydrolyzed by trichloroacetic acid to form kynurenine, and kynurenine further reacts with the Ehrlich reagent to make the solution yellow. The absorbance at 490 nm (OD490) is directly proportional to the activity of IDO1.
The experimental methods are summarized as follows:
The reaction buffer was 50 mM 2-(N-morpholine)ethanesulfonic acid-hydrate (Sigma, Cat. No. 69889); the full-length human recombinant IDO1 protein was purchased from the Tsinghua Protein Research Technology Center and diluted to a 33.6 ng/μL enzyme solution with the reaction buffer; the substrate solution was prepared with the reaction buffer containing 20 mM vitamin C (Sigma, Cat. No. A5960), 150 μM L-tryptophan (Sigma, Cat. No. T0254), 2250 UI/mL catalase (Sigma, Cat. No. C30), and 10 μM methylene blue (Sigma, Cat. No. 28514); the reaction termination solution was 30% (mass/volume) trichloroacetic acid (Sigma, Cat. No. T9159) aqueous solution; the Ehrlich reagent was 2% p-dimethylaminobenzaldehyde (Sigma, Cat. No. 156477) acetic acid (Macklin, Cat. No. A801295) solution.
A compound was dissolved in DMSO (Sigma, Cat. No. D5879) and diluted to 1 mM, then serially diluted 3-fold with DMSO to a minimum concentration of 50.8 nM, and each concentration was further diluted 25-fold with the reaction buffer. If a compound's IC50 value was very low, the initial concentration of the compound was decreased.
A 10-μL compound solution and a 10-μL enzyme solution were added to a 96-well plate (Sigma, Cat. No. CLS3695), mixed well and incubated at room temperature. After 15 min, a 20-μL substrate solution was added and incubated at 60° C. after mixing for 30 min. The reaction plate was equilibrated to room temperature and 60 μL of the Ehrlich reagent was added. After incubation for 15 min, OD490 of each well was measured.
In this experiment, OD490 without enzyme was referred as OD490100% inhibition, and OD490 with enzyme added but without compound was referred as OD4900% inhibition.
(§1) Where Y is the percentage of inhibition, Bottom is the bottom platform value of the S-curve, Top is the top platform value of the S-curve, X is the logarithm of the concentration of the test compound, and slope factor is the slope coefficient of the curve.

[2] = target: indoleamine 2,3-dioxygenase (IDO) in Hela cells (Homo sapiens (Human), UniProt P14902); experiment: IDO intracellular activity inhibition testing in Hela cells induced by IFN-γ (Ehrlich method); assay type: cell-based; conditions: 24 hours, OD490, 8 concentration points
indoleamine 2,3-dioxygenase (IDO) in Hela cells, sequence (P14902 whole entry): as above
Method: IDO Intracellular Activity Inhibition Testing
The effects of the compounds of the invention on the activity of indoleamine 2,3-dioxygenase (IDO) in Hela cells induced by IFN-γ were evaluated by the Ehrlich method.
The experimental principle is summarized as follows: IDO expression is low in Hela cells under no induction, but a certain concentration of IFN-γ can induces Hela cells to express IDO which catalyzes the conversion of tryptophan to N-formyl kynurenine, which in turn is hydrolyzed by trichloroacetic acid to give kynurenine. Kynurenine then reacts with the Ehrlich reagent to give a color enabling detection of the IDO activity. The absorbance at 490 nm (OD490) is directly proportional to the IDO activity.
A compound was dissolved in DMSO (Sigma, Cat. No. D5879) and diluted to 5 mM, then serially diluted 3-fold with DMSO to a minimum concentration of 2.29 μM, and each concentration point was diluted 50-fold with FBS-free DMEM medium (ThermoFisher, Cat. No. 11995073). If a compound's IC50 value is very low, the initial concentration of the compound was lowered.
Hela cells (ATCC, Cat. No. CCL-2) were cultured in DMEM complete medium containing 10% FBS (GBICO, Cat. No. 10099-141) and 100 U/mL streptomycin mixture (ThermoFisher, Cat. No. 15140122). When covering the culture vessel 80-90%, the cells were digested with 0.25% trypsin (containing EDTA) (ThermoFisher, Cat. No. 25200056) and planted in 96-well plates (Corning, Cat. No. 3599), 20000 cells per well (80 μL of DMEM medium). The plates were then incubated in a 37° C., 5% CO2 incubator overnight (18-20 hours).
After overnight, 10 μL of DMEM-diluted compound and 10 μL of 500 ng/mL of INF-γ were added to each well, and gently mixed and the 96-well plates were placed in a 37° C., 5% CO2 incubator for further culturing. After 24 hours, they were removed and centrifuged at room temperature 2000×g for 5 min, and then the supernatants were transferred to reaction plates (Sigma, Cat. No. CLS3695). One-twentieth of trichloroacetic acid (Sigma, Cat. No. T9159) was added and incubated at 60° C. After 30 min, the reaction plates were centrifuged at room temperature 2000×g for 5 min. The supernatants were transferred to clean reaction plates, an equal volume of the Ehrlich reagent was added, mixed, and incubated at room temperature. After 15 min, OD490 of each well was measured.
In this experiment, OD490 without IFN-γ but with DMEM medium replacement was referred as OD490100% inhibition. OD490 with IFN-γ and 0.2% DMSO was referred as OD4900% inhibition. The percentage of inhibition on the IDO1 activity in Hela cells by a compound was calculated using the following formula: Inhibition %=100−100*(OD490compound−OD490100% inhibition)/(OD4900% inhibition−OD490100% inhibition)
as §1

plasma IDO1, sequence (P28776 whole entry): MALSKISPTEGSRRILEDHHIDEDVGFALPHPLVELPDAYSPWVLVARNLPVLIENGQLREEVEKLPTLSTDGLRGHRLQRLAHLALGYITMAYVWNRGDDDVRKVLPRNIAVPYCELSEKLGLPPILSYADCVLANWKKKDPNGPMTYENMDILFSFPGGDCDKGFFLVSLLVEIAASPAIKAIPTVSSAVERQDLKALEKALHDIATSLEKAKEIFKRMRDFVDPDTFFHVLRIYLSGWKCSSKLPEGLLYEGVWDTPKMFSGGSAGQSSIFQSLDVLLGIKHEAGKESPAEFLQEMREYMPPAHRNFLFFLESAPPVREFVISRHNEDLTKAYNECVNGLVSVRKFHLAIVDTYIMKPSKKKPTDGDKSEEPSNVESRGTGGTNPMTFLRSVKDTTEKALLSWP

| Structure (SMILES) | activity of plasma IDO1 (plasma IDO1) | expansion of CT26 tumors (CT26 tumors) | IC50 [1] | IC50 [2] |
| --- | --- | --- | --- | --- |
| NS(=O)(=O)NCCNc1nonc1C(=NO)Nc1ccc(F)c(Br)c1 [INCB-024360] | effectively inhibit the activity of plasma IDO1 | prevented the expansion of CT26 tumors | – | – |
| N#Cc1ccc(NC(=O)Nc2c(-c3cccc(F)c3)ccc3cncn23)cc1 [Compound 22, 1-(4-cyanophenyl)-3-(6-(3-fluorophenyl)imidazo[1,5-a]pyridin-5-yl)urea] | – | – | < 250 nM | < 1000 nM |
| N#Cc1ccc(NC(=O)Nc2c(-c3ccc(F)cc3)ccc3cncn23)cc1 [Compound 21, 1-(4-cyanophenyl)-3-(6-(4-fluorophenyl)imidazo[1,5-a]pyridin-5-yl)urea] | – | – | 250 to 1500 nM | 1000 to 10000 nM |
| N#Cc1ccc(NC(=O)Nc2c(-c3ccccc3)ccc3cncn23)cc1 [Compound 17, 1-(4-cyanophenyl)-3-(6-phenylimidazo[1,5-a]pyridin-5-yl)urea] | – | – | < 250 nM | < 1000 nM |
| O=C(Cc1c(-c2ccccc2)ccc2cncn12)Nc1cn[nH]c1 [Compound 54, 2-(6-phenylimidazo[1,5-a]pyridin-5-yl)-N-(1H-pyrazol-4-yl)acetamide] | – | – | 250 to 1500 nM | 1000 to 10000 nM |
| N#Cc1ccc(NC(=O)Nc2c(-c3ccccc3F)ccc3cncn23)cc1 [Compound 23, 1-(4-cyanophenyl)-3-(6-(2-fluorophenyl)imidazo[1,5-a]pyridin-5-yl)urea] | – | – | < 250 nM | < 1000 nM |
| N#Cc1ccc(NC(=O)Nc2c(C3=CCCC3)ccc3cncn23)cc1 [Compound 24, 1-(4-cyanophenyl)-3-(6-(cyclopent-1-en-1-yl)imidazo[1,5-a]pyridin-5-yl)urea] | – | – | < 250 nM | 1000 to 10000 nM |
| O=C(Cc1c(-c2ccccc2)ccc2cncn12)Nc1ccc(C(=O)NCCCN2CCOCC2)cc1 [Compound 50, N-(3-morpholinopropyl)-4-(2-(6-phenylimidazo[1,5-a]pyridin-5-yl)acetamido)benzamide] | – | – | < 250 nM | < 1000 nM |
| O=C(Cc1c(-c2ccccc2)ccc2cncn12)Nc1ccc(-c2cn[nH]c2)cc1 [Compound 51, N-(4-(1H-pyrazol-4-yl)phenyl)-2-(6-phenylimidazo[1,5-a]pyridin-5-yl)acetamide] | – | – | < 250 nM | < 1000 nM |
| O=C(Cc1c(-c2ccccc2)ccc2cncn12)Nc1ccc(C(=O)NCCN2CCOCC2)cc1 [Compound 49, N-(2-morpholinoethyl)-4-(2-(6-phenylimidazo[1,5-a]pyridin-5-yl)acetamido)benzamide] | – | – | < 250 nM | < 1000 nM |
| O=C(Cc1c(-c2ccccc2)ccc2cncn12)Nc1cc[nH]n1 [Compound 53, 2-(6-phenylimidazo[1,5-a]pyridin-5-yl)-N-(1H-pyrazol-3-yl)acetamide] | – | – | < 250 nM | 1000 to 10000 nM |
| N#Cc1ccc(NC(=O)Cc2c(-c3ccccc3)ccc3cncn23)cc1 [Compound 37, N-(4-cyanophenyl)-2-(6-phenylimidazo[1,5-a]pyridin-5-yl)acetamide] | – | – | < 250 nM | < 1000 nM |
| N#Cc1ccc(NC(=O)Nc2c(Cl)ccc3cncn23)cc1 [Compound 19, 1-(6-chloroimidazo[1,5-a]pyridin-5-yl)-3-(4-cyanophenyl)urea] | – | – | < 250 nM | 1000 to 10000 nM |
